Data on two substances can be found in patent publication US20240352145A1, “EFFICACY OF ANTI-TROP-2-SN-38 ANTIBODY DRUG CONJUGATES FOR THERAPY OF TUMORS RELAPSED/REFRACTORY TO CHECKPOINT INHIBITORS” (Immunomedics, Inc., priority 2016, published 2024).

In one data set the test system is metastatic SCLC. Description: Phase I/II, metastatic SCLC cohort. The class given is in vivo, human.
The subject of data set [1] is human gastric carcinoma xenograft, NCI-N87. Description: NCI-N87 gastric carcinoma xenograft, Example 17. The class given is in vivo, mouse. The text has this: (§1) In Vivo Therapeutic Studies—NCr female athymic nude (nu/nu) mice, 4-8 weeks old, were purchased from Taconic Farms (Germantown, NY). NCI-N87 gastric tumor xenografts were established by harvesting cells from tissue culture and making a final cell suspension 1:1 in matrigel (BD Bioscience; San Jose, CA), with each mouse receiving a total of 1×10^7 cells s.c. in the right flank. For BxPC-3. xenografts of 1 g were harvested, and a tumor suspension made in HBSS to a concentration of 40% tumor w/v. This suspension was mixed 1:1 with matrigel for a final tumor suspension of 20% w/v. […] For IHC, tumors were allowed to grow to approximately 0.5 cm^3 before the mice were euthanized and the tumors removed, formalin-fixed and paraffin-embedded. For therapy studies, mice were randomized into treatment groups and therapy begun when tumor volumes were approximately 0.25 cm^3.
(§2) Mice were euthanized and deemed to have succumbed to disease once tumors grew to greater than 1.0 cm^3 in size. […] Time to progression (TTP) was determined as time post-therapy initiation when the tumor grew more than 20% in size from its nadir.
Survival studies were analyzed using Kaplan-Meier plots (log-rank analysis), using the Prism GraphPad Software (v4.03) software package (Advanced Graphics Software, Inc., Encinitas, CA).

For data set [2] the following is noted: mouse, in vivo. The text has this: Pharmacokinetics—Naive female NCr nude (nu/nu) mice, 8-10 weeks old, were purchased from Taconic Farms (Germantown, NY). […] ELISA was utilized to determine serum concentrations of total hRS7 IgG by competing for the binding to an anti-hRS7 IgG idiotype antibody with a horseradish peroxidase conjugate of hRS7. […] Pharmacokinetic (PK) parameters were computed by noncompartmental analysis using Phoenix WinNonlin software (version 6.3; Pharsight Corp., Mountainview, CA).

In data set [3] the test system is Capan-1. Description: In vitro cytotoxicity, Capan-1.
Text: Cell lines, antibodies, and chemotherapeutics—All human cancer cell lines used in this study were purchased from the American Type Culture Collection.
Data set [4] in a line: SN-38 release at lysosomal pH. Type of data set: physicochemical. The settings on record: pH 5.3 at 37° C.
Another data set relates to urothelial cancer. Description: Phase I/II, urothelial cancer cohort. Type of data set: in vivo, human.
Data set [5] deals with BxPC-3 human pancreatic tumors. The data set can be described thus: BxPC-3 xenograft therapy. Type of data set: in vivo, mouse. The protocol: NCr female athymic nude (nu/nu) mice, 4 to 8 weeks old, and male Swiss-Webster mice, 10 weeks old, were purchased from Taconic Farms. Tolerability studies were performed in Cynomolgus monkeys (Macaca fascicularis; 2.5-4 kg male and female) by SNBL USA, Ltd. Animals were implanted subcutaneously with different human cancer cell lines. Tumor volume (TV) was determined by measurements in 2 dimensions using calipers, with volumes defined as: L×w^2/2, where L is the longest dimension of the tumor and w is the shortest. […] This dosing frequency reflected a consideration of the conjugate's serum half-life […], to allow a more continuous exposure to the ADC.
Statistics—Growth curves are shown as percent change in initial TV over time. Statistical analysis of tumor growth was based on area under the curve (AUC). Profiles of individual tumor growth were obtained through linear-curve modeling. An f-test was employed to determine equality of variance between groups before statistical analysis of growth curves. A 2-tailed t-test was used to assess statistical significance between the various treatment groups and controls, except for the saline control, where a 1-tailed t-test was used (significance at P≤0.05). Statistical comparisons of AUC were performed only up to the time that the first animal within a group was euthanized due to progression.

For data set [6], the system named is Capan-1. Description: Cytotoxicity (MTS), Example 6, Capan-1. The class given is cell-based, human. The settings on record: Capan-1, 96 h. The method, then: One day prior to adding the ADCs, cells were harvested from tissue culture and plated into 96-well plates. […] Plates were incubated at 37° C. for 96 h. […] Growth inhibition was measured as a percent of growth relative to untreated cells using Microsoft Excel and Prism software (non-linear regression to generate sigmoidal dose response curves which yield IC50-values.

The test system of the next data set is BxPC-3. The data set can be described thus: Cytotoxicity (MTS), Example 7, BxPC-3. The settings on record: BxPC-3, 96 h. Type of data set: cell-based, human. The protocol: One day prior to adding the ADC, cells were harvested from tissue culture and plated into 96-well plates at 2000 cells per well. […] Plates were incubated at 37° C. for 96 h. […] Growth inhibition was measured as a percent of growth relative to untreated cells using Microsoft Excel and Prism software (non-linear regression to generate sigmoidal dose response curves which yield IC50-values).

Data set [7] addresses T1, recombinant human neonatal receptor (FcRn) (Homo sapiens, UniProt P55899).
T1 construct: made in house
The data set can be described thus: Surface plasmon resonance (BIACORE), FcRn. Type of data set: binding. The settings on record: low-density FcRn chip, three independent runs. The text has this: Surface Plasmon Resonance Binding (BIACORE)—Briefly, rhTrop-2/TACSTD2 (Sino Biological, Inc.) or recombinant human neonatal receptor (FcRn), produced as described (Wang et al., 2011, Drug Metab Dispos 39:1469-77), was immobilized with an amine coupling kit (GE Healthcare; Cat. No. BR-1000-50) on a CM5 sensor chip (GE Healthcare; Cat. #BR-1000-12) following manufacturer's instructions for a low-density chip. […] Each set would make up a separate run on the BIACORE (BIACORE-X; Biacore Inc., Piscataway, NJ) and data were analyzed using BIAevaluation Software (Biacore Inc., v4.1). Analysis was performed with a 1:1 (Langmuir) Binding Model and Fit, using all five concentration points for each sample run to determine the best fit (lowest χ^2 value). The KDvalue was calculated using the formula KD=kd1/ka1, where kd1 is the dissociation rate-constant and ka1 is the association-rate constant.
Background: Surface plasmon resonance follows binding to a sensor surface in real time, without labels.

In data set [8] the test system is NCI-N87 human gastric tumor xenografts. Description: Dose schedules and chronic dosing, NCI-N87 xenograft. The class given is in vivo, mouse.
Text: as §1, §2
A similar dose schedule experiment was performed in mice bearing NCI-N87 human gastric tumor xenografts (not shown). […] Likewise, in terms of overall survival, while all three dose schedules provided a significant survival benefit when compared to untreated control (P<0.0001), there were no differences between any of these three different schedules.
In all, four treatment cycles were administered to the animals.

A word on the IC50: it is the concentration needed to halve the response being measured. A higher IC50 goes with weaker potency in that assay. Broadly, the Kd is the concentration at which binding is half-saturated.

T1 sequence (P55899 24-297 limits assumed): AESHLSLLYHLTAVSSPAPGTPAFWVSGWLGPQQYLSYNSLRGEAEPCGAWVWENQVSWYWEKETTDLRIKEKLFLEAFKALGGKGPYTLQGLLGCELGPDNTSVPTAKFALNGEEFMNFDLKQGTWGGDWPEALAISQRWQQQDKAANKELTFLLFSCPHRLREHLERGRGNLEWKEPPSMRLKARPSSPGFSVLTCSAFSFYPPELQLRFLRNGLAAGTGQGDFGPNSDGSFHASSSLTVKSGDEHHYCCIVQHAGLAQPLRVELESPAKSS
T1 sequence (P61769 21-119 partner): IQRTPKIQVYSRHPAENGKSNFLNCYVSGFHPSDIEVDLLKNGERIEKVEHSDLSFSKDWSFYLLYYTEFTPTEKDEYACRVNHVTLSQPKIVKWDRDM

For IMMU-132, in the data set with metastatic SCLC (8 mg/kg), the “median OS” value was found to be 8.1 months. In addition, the figures for the “median PFS” value in the data set on metastatic SCLC (8 mg/kg) and with metastatic SCLC (10 mg/kg) were 2.0 months and 3.6 months, respectively. Moreover, the figures for the “median time to progression” value in the data set on metastatic SCLC (in vivo) and in the data set with urothelial cancer (in vivo) were 4.9 months and 8.1 months, respectively. For the same substance, the “anti-tumor effects vs non-specific control” value in data set [1] (17.5 mg/kg, twice weekly x 4 weeks) is listed as “significant anti-tumor effects”. Also, in data set [1] (14 days for saline control), the “median survival time (MST)” value is 66 days. For the same substance, the “mean time to progression (TTP)” value in [1] (mouse, in vivo) is 41.7 ± 4.2 days. Besides, the “partial responders, mice” value in [1] (mouse, in vivo) is listed as 6 of 7. In data set [2], the “MRT of carrier hRS7 antibody” value was roughly 300 h. Moreover, in data set [2] (iv, 200 ug), the “alpha half-life of hRS7 IgG” value is “approximately 3 h”. The “beta half-life of hRS7 IgG” value in data set [2] (iv, 200 ug) is roughly 200 h. Further, the “half-life of intact conjugate” value in [2] (iv, 200 ug) was 11 h. The figures for the IC50 in the data set with Capan-1 [3], in the data set with Capan-1 [6] and in the data set on BxPC-3 were 6.99 nM, 3.5 nM and 5.8 nM, respectively. Besides, the “time for release of 50% of the SN-38” value in [4] is roughly 13 h. For the same substance, in the data set on urothelial cancer (11 assessable patients, 8 or 10 mg/kg), the “PR, patients” value is given as 6. For the same substance, the “tumor volume (TV)” value in [5] (day 21, equivalent amounts of ADC) was 0.24±0.11 cm^3; in [5] (day 25), 0.27±0.18 cm^3. The Kd in [7] was determined as 192 ± 47.6 nM. This substance also returned a TTP in data set [8] (0.5 mg once a week for two weeks, one week off, four cycles) of 15.7 ± 11.1 days. Moreover, in data set [8] (all dosing scheme evaluations, body weight), the treatment-related toxicities entry was “no treatment-related toxicities were observed”. The “increase in median survival vs control ADC” value in [8] (chronic dosing) is reported as 3 fold. The substance also gave a median survival in [8] (chronic dosing, four cycles) of 63 days.
As to hRS7 IgG, in data set [2] (iv, 200 ug), the “alpha half-life of hRS7 IgG” value is “approximately 3 h” and the “beta half-life of hRS7 IgG” value is on record as roughly 200 h. In data set [7], the Kd is 92.4 ± 5.7 nM.
